Data published in PubChem BioAssay AID328 (DTP/NCI, 2004).
Values joined by “and” are separate entries in the source; they are usually repeats but may differ in a detail not shown here. Equal values may be shown once. Toxic doses and inconclusive results are not listed.

System: BDF1 mice, P388 leukemia ip, median survival T/C
Test: NCI In Vivo Anticancer Drug Screen. Data for tumor model P388 Leukemia (intraperitoneal) in B6D2F1 (BDF1) mice
Settings: endpoint: median survival time, higher = longer survival
How it was run: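 Each value expresses how treatment altered survival: treated-mouse outcome over vehicle-mouse outcome, both groups bearing the transplanted tumour.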

[1] = dose: 100.0 mg/kg/injection, schedule: Q01DX009 (ip), vehicle: saline

SMILES: CC(=O)OC1C=CC(=O)OC1C1OC1C (stereo not drawn)
- T/C (dose: 3.0 mg/kg/injection, schedule: Q01DX010 (ip), vehicle: carboxymethylcellulose (CMC)): 90 % of control
- T/C (dose: 6.0 mg/kg/injection, schedule: Q01DX010 (ip), vehicle: carboxymethylcellulose (CMC)): 90 % of control
- T/C (dose: 12.0 mg/kg/injection, schedule: Q01DX010 (ip), vehicle: carboxymethylcellulose (CMC)): 100 % of control
- T/C (dose: 25.0 mg/kg/injection, schedule: Q01DX010 (ip), vehicle: carboxymethylcellulose (CMC)): 109 % of control

SMILES: COC(=O)CCC(=O)c1ccc(OC)c(OC)c1
- T/C (dose: 50.0 mg/kg/injection, schedule: Q01DX009 (ip), vehicle: saline with Tween-80): 115 % of control
- T/C (dose: 100.0 mg/kg/injection, schedule: Q01DX009 (ip), vehicle: saline with Tween-80): 99 % of control
- T/C (dose: 200.0 mg/kg/injection, schedule: Q01DX009 (ip), vehicle: saline with Tween-80): 99 % of control

SMILES: CSC(=S)NNC(=O)c1cccc([N+](=O)[O-])c1
- T/C (dose: 6.25 mg/kg/injection, schedule: Q04DX003 (ip), vehicle: saline sonified): 110 % of control
- T/C (dose: 12.5 mg/kg/injection, schedule: Q04DX003 (ip), vehicle: saline sonified): 105 % of control
- T/C (dose: 25.0 mg/kg/injection, schedule: Q04DX003 (ip), vehicle: saline sonified): 100 % of control

SMILES: O=C1NCN(c2ccccc2)C12CCNCC2
- T/C (dose: 25.0 mg/kg/injection, schedule: Q01DX009 (ip), vehicle: saline): 90 % of control
- T/C (dose: 50.0 mg/kg/injection, schedule: Q01DX009 (ip), vehicle: saline): 113 % of control
- T/C [1]: 100 % of control

SMILES: CCOC(=O)CCN1CCCC1
- T/C [1]: 100 % of control
- T/C (dose: 100.0 mg/kg/injection, schedule: Q04DX003 (ip), vehicle: saline): 100 % of control
- T/C (dose: 200.0 mg/kg/injection, schedule: Q01DX009 (ip), vehicle: saline): 91 % of control
- T/C (dose: 200.0 mg/kg/injection, schedule: Q04DX003 (ip), vehicle: saline): 100 % of control
- T/C (dose: 400.0 mg/kg/injection, schedule: Q01DX009 (ip), vehicle: saline): 100 % of control
- T/C (dose: 400.0 mg/kg/injection, schedule: Q04DX003 (ip), vehicle: saline): 95 % of control

SMILES: O=C(O)C1(C(=O)O)CCC2(CCCCC2)CC1
- T/C (dose: 3.12 mg/kg/injection, schedule: Q04DX003 (ip), vehicle: water): 98 % of control
- T/C (dose: 6.25 mg/kg/injection, schedule: Q01DX009 (ip), vehicle: water): 110 % of control
- T/C (dose: 6.25 mg/kg/injection, schedule: Q04DX003 (ip), vehicle: water): 102 % of control
- T/C (dose: 12.5 mg/kg/injection, schedule: Q01DX009 (ip), vehicle: water): 94 % of control
- T/C (dose: 12.5 mg/kg/injection, schedule: Q04DX003 (ip), vehicle: water): 102 % of control
- T/C (dose: 25.0 mg/kg/injection, schedule: Q01DX009 (ip), vehicle: water): 103 % of control
- T/C (dose: 25.0 mg/kg/injection, schedule: Q04DX003 (ip), vehicle: water): 101 % of control and 116 % of control
- T/C (dose: 50.0 mg/kg/injection, schedule: Q01DX009 (ip), vehicle: water): 100 % of control
- T/C (dose: 50.0 mg/kg/injection, schedule: Q04DX003 (ip), vehicle: water): 101 % of control and 103 % of control
- T/C (dose: 100.0 mg/kg/injection, schedule: Q04DX003 (ip), vehicle: water): 90 % of control

SMILES: COc1ccc(CC2C(=O)NC(C)C(=O)N(C)C3Cc4ccc(cc4)Oc4cc(ccc4O)CC(C(=O)NC(C)C(=O)NC(C)C(=O)N2C)N(C)C3=O)cc1 (stereo not drawn)
- T/C (dose: 0.04 mg/kg/injection, schedule: Q01DX009 (ip), vehicle: saline): 163 % of control
- T/C (dose: 0.07 mg/kg/injection, schedule: Q01DX009 (ip), vehicle: saline): 181 % of control
- T/C (dose: 0.11 mg/kg/injection, schedule: Q01DX009 (ip), vehicle: saline with Tween-80): 196 % of control
- T/C (dose: 0.11 mg/kg/injection, schedule: Q01DX009 (ip), vehicle: saline): 163 % of control
- T/C (dose: 0.16 mg/kg/injection, schedule: Q01DX009 (ip), vehicle: saline with Tween-80): 216 % of control
- T/C (dose: 0.25 mg/kg/injection, schedule: Q01DX009 (ip), vehicle: saline with Tween-80): 160 % of control and 186 % of control
- T/C (dose: 0.5 mg/kg/injection, schedule: Q01DX009 (ip), vehicle: saline with Tween-80): 186 % of control
- T/C (dose: 1.0 mg/kg/injection, schedule: Q01DX009 (ip), vehicle: saline with Tween-80): 189 % of control
- T/C (dose: 2.0 mg/kg/injection, schedule: Q01DX009 (ip), vehicle: saline with Tween-80): 208 % of control
- T/C (dose: 4.32 mg/kg/injection, schedule: Q04DX003 (ip), vehicle: other): 161 % of control and 212 % of control
- T/C (dose: 7.2 mg/kg/injection, schedule: Q04DX003 (ip), vehicle: other): 163 % of control and 208 % of control
- T/C (dose: 10.0 micrograms/kg/injection, schedule: Q01DX009 (ip), vehicle: saline with Tween-80): 108 % of control
- T/C (dose: 20.0 micrograms/kg/injection, schedule: Q01DX009 (ip), vehicle: saline with Tween-80): 108 % of control
- T/C (dose: 40.0 micrograms/kg/injection, schedule: Q01DX009 (ip), vehicle: saline with Tween-80): 119 % of control
